± gives the standard deviation of the averaged measurements.
Experiments:
Assay in all cases: level (log10 ratio to DMSO vehicle control); higher = higher biomarker level / cell amount than vehicle control
Conditions in all cases: in DMSO
[1] = compound: O=C(O)C(F)(F)C(F)(F)C(F)(F)C(F)(F)C(F)(F)C(F)(F)C(F)(F)C(F)(F)C(F)(F)C(F)F [11-H-Perfluoroundecanoic acid]
Procedure: (§1)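 BioMAP Diversity Plus panel of 12 human primary cell co-culture systems (3C, 4H, LPS, SAg, BT, BF4T, BE3C, CASM3C, HDF3CGF, KF3CT, MyoF, Mphg). Compounds were added 1 h before stimulation and left for 24 h (MyoF 48 h; BT 72 h for soluble read-outs or 6 d for IgG). Biomarkers were read by ELISA, cytotoxicity by SRB, PBMC viability and proliferation by Alamar Blue. Each well value was divided by the mean of 8 DMSO control wells on the same plate and log10 transformed; duplicate blinded samples were tested at 4 concentrations.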

[2] = compound: NS(=O)(=O)C(F)(F)C(F)(F)C(F)(F)C(F)(F)C(F)(F)C(F)(F)F [Perfluorohexanesulfonamide]
Procedure: as §1

[3] = compound: O=S(=O)(F)C(F)(F)C(F)(F)C(F)(F)C(F)(F)C(F)(F)C(F)(F)C(F)(F)C(F)(F)F [Perfluorooctanesulfonyl fluoride]
Procedure: as §1

[4] = compound: C=C(C)C(=O)OCCC(F)(F)C(F)(F)C(F)(F)C(F)(F)C(F)(F)C(F)(F)F [6:2 Fluorotelomer methacrylate]
Procedure: as §1

[5] = compound: FC(F)(F)C(F)(F)C(F)(F)C(F)(F)C(F)(F)C(F)(F)CC1CO1 [3-(Perfluorohexyl)-1,2-epoxypropane]
Procedure: as §1

Nonafluoropentanamide = compound: NC(=O)C(F)(F)C(F)(F)C(F)(F)C(F)(F)F [Nonafluoropentanamide]
Procedure: as §1

[6] = compound: O=C(O)C=CC(F)(C(F)(F)F)C(F)(F)F [3-(Perfluoroisopropyl)-2-propenoic acid]
Procedure: as §1

Row | Test System | level (log10) ([1]; 6700 nM) | level (log10) ([1]; 20000 nM) | level (log10) ([2]; 6700 nM) | level (log10) ([2]; 20000 nM) | level (log10) ([2]; 60000 nM) | level (log10) ([3]; 6700 nM) | level (log10) ([3]; 20000 nM) | level (log10) ([3]; 60000 nM) | level (log10) ([4]; 6700 nM) | level (log10) ([4]; 20000 nM) | level (log10) ([4]; 60000 nM) | level (log10) ([5]; 6700 nM) | level (log10) ([5]; 20000 nM) | level (log10) ([5]; 60000 nM) | level (log10) (Nonafluoropentanamide; 6700 nM) | level (log10) (Nonafluoropentanamide; 20000 nM) | level (log10) (Nonafluoropentanamide; 60000 nM) | level (log10) ([6]; 6700 nM) | level (log10) ([6]; 20000 nM) | level (log10) ([6]; 60000 nM)
1 | CASM3C:CXCL8/IL-8 | -0.001 ± 0.0057 | -0.011 ± 0.0014 | -0.0235 ± 0.0035 | -0.014 ± 0.014 | 0.001 ± 0.0085 | 0.0025 ± 0.00071 | -0.0035 ± 0.0035 | 0.0035 ± 0.016 | 0.0185 ± 0.018 | 0.0165 ± 0.012 | 0.0205 ± 0.00071 | 0.011 ± 0.016 | 0.011 ± 0.0099 | 0.0295 ± 0.025 | -0.003 ± 0.018 | -0.0105 ± 0.012 | 0.0065 ± 0.018 | 0.008 ± 0.025 | 0.0025 ± 0.016 | 0.0225 ± 0.0021
2 | CASM3C:CXCL9/MIG | 0 ± 0.0071 | -0.009 ± 0.018 | 0.003 ± 0.0042 | -0.0065 ± 0.005 | -0.003 ± 0.023 | -0.0025 ± 0.00071 | 0.001 ± 0.0057 | 0.0075 ± 0.011 | 0.011 ± 0.016 | 0.0255 ± 0.012 | 0.041 ± 0.0099 | -0.014 ± 0.025 | -0.007 ± 0.016 | 0.0005 ± 0.026 | -0.011 ± 0.013 | -0.029 ± 0.051 | -0.0075 ± 0.074 | -0.004 ± 0.0099 | 0.002 ± 0.0057 | 0.027 ± 0.023
3 | CASM3C:HLA-DR | -0.0085 ± 0.0021 | -0.02 ± 0.0028 | 0.002 ± 0.03 | 0 ± 0.0071 | 0.005 ± 0.0042 | 0.0065 ± 0.022 | -0.0035 ± 0.0092 | 0.008 ± 0.0057 | -0.008 ± 0.042 | -0.0015 ± 0.015 | 0.0155 ± 0.011 | -0.016 ± 0.027 | -0.033 ± 0.0071 | 0.009 ± 0.057 | -0.0315 ± 0.005 | -0.0005 ± 0.036 | -0.0275 ± 0.021 | -0.033 ± 0.011 | -0.0465 ± 0.022 | 0.0095 ± 0.044
4 | CASM3C:IL-6 | -0.027 ± 0.014 | -0.0395 ± 0.03 | -0.0145 ± 0.013 | -0.054 ± 0.0099 | -0.0495 ± 0.044 | -0.014 ± 0.02 | -0.008 ± 0.0071 | -0.0125 ± 0.061 | -0.0405 ± 0.035 | -0.046 ± 0.0042 | 0.005 ± 0.0028 | -0.0375 ± 0.025 | -0.0335 ± 0.012 | 0.001 ± 0.089 | 0.0185 ± 0.06 | -0.0285 ± 0.021 | 0.015 ± 0.014 | -0.035 ± 0.011 | -0.0525 ± 0.00071 | 0.001 ± 0.092
5 | CASM3C:LDLR | -0.0025 ± 0.005 | -0.006 ± 0.0099 | -0.003 ± 0.014 | -0.0105 ± 0.005 | -0.04 ± 0.011 | 0.0035 ± 0.0021 | 0.0015 ± 0.012 | 0.0055 ± 0.023 | -0.0185 ± 0.026 | -0.001 ± 0.025 | -0.016 ± 0.0099 | -0.003 ± 0.02 | 0.0105 ± 0.012 | 0.025 ± 0.014 | 0.0055 ± 0.059 | -0.035 ± 0.0028 | 0.021 ± 0.072 | -0.006 ± 0.017 | -0.0045 ± 0.00071 | 0.008 ± 0.017
6 | CASM3C:M-CSF | 0.0055 ± 0.0035 | -0.004 ± 0.0099 | 0.009 ± 0.035 | 0.0295 ± 0.012 | 0.119 ± 0.0035 | 0.0005 ± 0.013 | -0.0185 ± 0.028 | 0.0085 ± 0.021 | -0.004 ± 0.011 | 0.002 ± 0.0014 | 0.024 ± 0.021 | -0.0025 ± 0.012 | -0.0125 ± 0.011 | 0.0325 ± 0.056 | -0.0105 ± 0.0021 | -0.0075 ± 0.019 | 0.0195 ± 0.035 | -0.0195 ± 0.0078 | -0.0175 ± 0.011 | 0.009 ± 0.034
7 | CASM3C:PAI-I | 0.001 ± 0.0057 | 0.006 ± 0.0028 | -0.0045 ± 0.011 | -0.008 ± 0.0042 | 0.004 ± 0.0071 | 0.005 ± 0.0071 | -0.005 ± 0.0028 | 0.0045 ± 0.0035 | -0.01 ± 0.013 | -0.0055 ± 0.0021 | 0.007 ± 0.013 | 0.0055 ± 0.005 | 0.002 ± 0.0085 | 0.017 ± 0.0042 | -0.008 ± 0.024 | -0.0065 ± 0.0064 | 0.0105 ± 0.0064 | 0.006 ± 0.0028 | 0 ± 0.0057 | 0.012 ± 0.0057
8 | CASM3C:Proliferation | -0.0495 ± 0.015 | 0.0005 ± 0.043 | 0.0015 ± 0.013 | 0.0285 ± 0.03 | 0.0255 ± 0.018 | -0.0125 ± 0.044 | -0.0265 ± 0.032 | 0.0095 ± 0.0064 | -0.0395 ± 0.046 | -0.042 ± 0.031 | 0.0115 ± 0.0092 | 0.001 ± 0.021 | -0.0035 ± 0.005 | 0.027 ± 0.027 | -0.032 ± 0.058 | -0.017 ± 0.03 | -0.0505 ± 0.035 | 0.0035 ± 0.019 | -0.009 ± 0.0085 | 0.009 ± 0.059
9 | CASM3C:SRB | 0.0025 ± 0.0078 | 0.008 ± 0.0028 | 0.004 ± 0.013 | 0.006 ± 0.013 | -0.0035 ± 0.0078 | 0.002 ± 0.0014 | -0.006 ± 0.0071 | -0.0015 ± 0.0021 | 0.001 ± 0.0057 | -0.0035 ± 0.0021 | 0.002 ± 0.0042 | 0 ± 0.0085 | -0.009 ± 0.0014 | 0.0025 ± 0.00071 | 0.005 ± 0.0057 | 0.0025 ± 0.0035 | 0.0035 ± 0.0035 | 0.006 ± 0.0042 | -0.011 ± 0.0042 | -0.003 ± 0.0028
10 | CASM3C:Serum Amyloid A | 0.0155 ± 0.00071 | 0.0205 ± 0.036 | -0.0055 ± 0.039 | 0.012 ± 0.018 | 0.0625 ± 0.018 | 0.0225 ± 0.0092 | 0.0245 ± 0.0078 | 0.0185 ± 0.011 | -0.032 ± 0.023 | -0.051 ± 0.02 | -0.0425 ± 0.023 | -0.0115 ± 0.042 | -0.012 ± 0.013 | 0.031 ± 0.023 | -0.016 ± 0.018 | -0.018 ± 0.0057 | 0.008 ± 0.013 | 0.0085 ± 0.005 | -0.023 ± 0.017 | 0.026 ± 0.045
11 | HDF3CGF:CCL2/MCP-1 | 0.0125 ± 0.0064 | -0.065 ± 0.014 | 0.0185 ± 0.016 | 0.047 ± 0.018 | 0.091 ± 0.014 | -0.0035 ± 0.028 | 0.007 ± 0.023 | -0.007 ± 0.072 | -0.0445 ± 0.0092 | -0.0295 ± 0.005 | -0.048 ± 0.0028 | -0.0165 ± 0.0021 | -0.0045 ± 0.019 | 0.0055 ± 0.03 | -0.0025 ± 0.019 | 0.0065 ± 0.012 | 0.01 ± 0.035 | -0.006 ± 0.018 | 0.006 ± 0.0085 | 0.017 ± 0.017
12 | HDF3CGF:CD54/ICAM-1 | -0.058 ± 0.0085 | -0.0635 ± 0.0035 | -0.005 ± 0.0028 | -0.0155 ± 0.012 | -0.0225 ± 0.005 | -0.013 ± 0.018 | -0.011 ± 0.0014 | -0.006 ± 0.013 | -0.011 ± 0.0042 | 0.0035 ± 0.012 | 0.005 ± 0.0014 | -0.01 ± 0.018 | -0.0095 ± 0.0092 | -0.021 ± 0.034 | -0.0065 ± 0.011 | -0.01 ± 0.0085 | 0 ± 0.0042 | -0.0105 ± 0.005 | -0.0055 ± 0.015 | -0.024 ± 0.016
13 | HDF3CGF:CD106/VCAM-1 | -0.085 ± 0.051 | -0.234 ± 0.0064 | -0.0505 ± 0.059 | -0.034 ± 0.042 | -0.205 ± 0.0092 | -0.011 ± 0.02 | -0.071 ± 0.05 | -0.083 ± 0.048 | -0.0005 ± 0.018 | -0.0085 ± 0.0064 | -0.0395 ± 0.03 | -0.001 ± 0.025 | -0.01 ± 0.0057 | -0.057 ± 0.016 | 0.008 ± 0.028 | 0.0185 ± 0.03 | -0.0085 ± 0.037 | -0.0265 ± 0.015 | -0.019 ± 0.02 | -0.025 ± 0.035
14 | HDF3CGF:CXCL9/MIG | -0.089 ± 0.0099 | -0.222 ± 0.014 | 0.0165 ± 0.019 | 0.01 ± 0.028 | -0.061 ± 0.037 | -0.01 ± 0.0028 | 0.0125 ± 0.0092 | -0.02 ± 0.017 | 0.0025 ± 0.019 | 0.0095 ± 0.00071 | 0.015 ± 0.0085 | 0.0095 ± 0.0092 | 0.0085 ± 0.016 | -0.0085 ± 0.013 | 0.017 ± 0.0028 | -0.0025 ± 0.0064 | 0.005 ± 0.018 | 0.017 ± 0.0071 | 0.02 ± 0.011 | 0.011 ± 0.023

Source: the supplement of paper PMC10331698
